Assay results taken from patent publication US5114918A, “Endothelin antagonistic cyclic pentapeptides” (Banyu Pharmaceutical Co., Ltd., priority 1989, dated 1992).
Several values for one entry are separate records, joined by “and”; a condition that tells them apart may be missing. Equal values may be shown once. Square brackets hold non-standard residues; d marks the D form. Peptide text beside a SMILES is read from it.

Experiments:
[1] = system: isolated porcine coronary artery (endothelin-1-induced contraction); test: Activities against endothelin-induced contraction of isolated porcine coronary arteries; design: species or system pig; details: compound 2 μM
Experimental: Activities against endothelin-induced contraction of isolated procine coronary arteries
The coronary artery of pig was extracted, and a spiral preparation having a width of 1 mm and a length of 10 mm was prepared therefrom. The preparation having the endothelial cells denuded, was hanged in a 5 ml organ bath filled wit a Krebs.Henseleit solution saturated with a gas mixture of 95% O2 and 5% CO2, and the change in the tension was isometrically measured and recorded.
(§1) Endothelin-1 was added into the organ bath in a cumulatively increasing manner, whereby the influence of the compound of the present invention to the concentration-response curve for endothelin-1 was examined. The compound of the present invention was added into the organ bath 20 minutes prior to the addition of endothelin-1.

[2] = system: male ddy mouse (endotoxin-induced body temperature lowering); test: Endotoxin shock: endotoxin-induced body temperature lowering in mice; format: in vivo; details: endotoxin 30 mg/kg i.v., compound 100 mg/kg i.p. 30 minutes prior to and 30 minutes subsequent to endotoxin
Experimental: (§2) Activities against an endotoxin shock
(§3) To a male ddy mouse, endotoxin (Lipopolysaccharide derived from E. coli 055:B5) dissolved in a 0.15% sodium hydrogencarbonate aqueous solution, was intravenously administered via the tail vein at a dose of 30 mg/kg, whereupon a distinct body temperature lowering effect was observed.

[3] = system: isolated guinea pig trachea (endothelin-1-induced contraction); test: Activities against endothelin-induced contraction of isolated guinea pig trachea; details: compound 2 μM
Experimental: Activities aqainst endothelin-induced contraction of isolated guinea pig trachea
The trachea of a guinea pig was extracted, and the trachea was cut into rings to afford the preparation. A preparation having the endothelial cells denuded, was hanged in a 5 ml organ bath filled with a Krebs.Henseleit solution saturated with a gas mixture of 95% O2 and 5% CO2, and the change in the tension was isometrically measured and recorded.
as §1, with “manner, and” for “manner, whereby”, “for endothelin” for “for endothelin-1”

[4] = system: mice (endotoxin-induced mortality); test: Endotoxin shock: endotoxin-induced mortality in mice; format: in vivo, mouse; details: for Survived number/number of the tested animals / survival rate (%): compound 100 × 2 mg/kg i.p.
Experimental: as §2, §3
The intravenous administration of endotoxin via the tail vein at a high dose (100 mg/kg) killed mice in all cases (10/10) within 48 hours.

[5] = molecular target: T1, endothelin receptor (membrane of smooth muscle tissue of porcine aorta) (Sus scrofa, UniProt Q29010); test: Endothelin binding inhibition test (125I-endothelin-1, porcine aorta smooth muscle membrane); details: 1.1 μM of the test compound; porcine aorta smooth muscle membrane; 25° C, 4 hours; read-out: 125I-endothelin-1 binding inhibition, Inhibition (%)
T1 construct: from tissue; host or cells: smooth muscle tissue of porcine aorta (membrane fraction)
T1 sequence (Q29010 21-427): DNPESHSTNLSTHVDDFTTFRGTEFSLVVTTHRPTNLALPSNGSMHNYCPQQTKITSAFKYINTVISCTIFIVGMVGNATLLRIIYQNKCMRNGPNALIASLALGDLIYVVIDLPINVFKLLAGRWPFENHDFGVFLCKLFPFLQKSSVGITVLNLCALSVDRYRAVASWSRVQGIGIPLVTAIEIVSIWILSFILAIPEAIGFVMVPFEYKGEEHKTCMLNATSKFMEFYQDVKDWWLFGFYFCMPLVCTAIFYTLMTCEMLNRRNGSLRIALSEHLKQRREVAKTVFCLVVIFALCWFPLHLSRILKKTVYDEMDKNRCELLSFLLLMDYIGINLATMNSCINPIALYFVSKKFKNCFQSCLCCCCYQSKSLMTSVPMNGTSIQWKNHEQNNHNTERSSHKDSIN
Procedure, shortened: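 Porcine aortic smooth muscle membranes incubated with ^125I-endothelin-1 (12000-18000 cpm) and test compound at 1.1 μM final in Tris/HCl pH 7.4 with protease inhibitors and 0.1% BSA, 4 h at 25 °C. Filter-bound radioactivity counted, nonspecific binding defined with 0.2 μM endothelin-1; % binding inhibition in triplicate.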

[6] = added 20 minutes prior to endothelin-1
[7] = 24 hr after endotoxin (100 mg/kg i.v.)
[8] = 48 hr after endotoxin (100 mg/kg i.v.)
[9] = 96 hr after endotoxin (100 mg/kg i.v.)

Compound: CC(C)C[C@@H]1NC(=O)[C@@H](C(C)C)NC(=O)[C@@H]2CCCN2C(=O)[C@@H](CC(=O)O)NC(=O)[C@@H](Cc2c[nH]c3ccccc23)NC1=O [Example 15, cyclo(-DTrp-DAsp-Pro-DVal-Leu-)] (cyclo(L[dW][dD]P[dV]))
- effect on the maximum response to endothelin-1 [1]: did not affect the maximum response
- shift of the concentration-response curve of endothelin-1 [1, 6]: remarkably shifted the concentration-response curves of endothelin-1 to the right
- effect on the endotoxin-induced body temperature lowering [2]: showed remarkable antagonistic activities against the endotoxin-induced body temperature lowering effect
- effect on the maximum response to endothelin-1 [3]: did not affect the maximum response
- shift of the concentration-response curve for endothelin-1 [3, 6]: remarkably shifted the concentration-response curves for endothelin-1 to the right
- Survived number/number of the tested animals [4, 7]: 10/10
- survival rate (%) [4, 7]: 100%
- Survived number/number of the tested animals [4, 8]: 6/10
- survival rate (%) [4, 8]: 60%
- Survived number/number of the tested animals [4, 9]: five cases out of ten cases survived and 5/10
- survival rate (%) [4, 9]: 50%
- effect on endotoxin-induced mortality ([4]; endotoxin 100 mg/kg i.v., compound 100 mg/kg i.p. 30 minutes before and after endotoxin): a distinct reduction in the mortality was observed
- inhibition at 1.1 µM [5]: 85%
